Measurements from US20140163099A1, “ANTIMICROBIAL COMPOSITION” (TAKASAGO INTERNATIONAL CORPORATION, priority 2011, published 2014).
In brackets after ≈: the same amount, converted by molar mass.

Assays:
Type in all cases: cell-based
[1] = tested on: Bacillus subtilis (NBRC3134); assay: Growth inhibition activity (MIC, agar) against aerobic bacteria; details: Bacillus subtilis; strain NBRC3134; Mueller Hinton Agar, 37 degrees C. overnight; read-out: MIC (Minimum Inhibitory Concentration)
Description: (§1) In the present invention, the growth inhibition activity, which is an indicator of the antimicrobial activity, is evaluated by determining the Minimum Inhibitory Concentration (MIC) with an agar or liquid medium.
Furthermore, the following bacteria were also used as other general aerobic bacteria: • Escherichia coli: Escherichia coli (NBRC3972) • Pseudomonas aeruginosa: Pseudomonas aeruginosa (NBRC13275) • Bacteria in intestines: Proteus vulgaris (NBRC3167) • Pneumobacillus: Klebsiella pneumoniae (NBRC13277) • Bacillus subtilis: Bacillus subtilis (NBRC3134)
(§2) The test strains were cultured in the liquid medium which the Bioresource center recommends, and then the test strains were subcultured to a Mueller Hinton Broth (Difco) at 30 degrees C. The grown bacteria were diluted to 10^6 CFU/ml with saline to adjust the bacteria fluids for inoculation.
(§3) Furthermore, in order to examine the growth inhibition activities against the bacteria by the above cooling agents, the concentration of the cooling agents: (3S)-CA20, (3R)-CA20, CA1, CA5, CA15, CA55 or CA MGH was diluted with ethanol to the required level of concentration for the determining the Minimum Inhibitory Concentration to produce the sample liquids.
(§4) Next, 100 μL of each sample liquid was added to 10 mL of a Mueller Hinton Agar (Difco) agar medium solution in a soluble state, and each agar medium solution was poured into a petri dish and solidified to prepare test plates having several concentrations of the sample liquids (several concentrations of the above cooling agents). Subsequently, 5 μL of the above bacteria fluids for inoculation were stamped on the test plates, and then the test plates were cultured at 37 degrees C. overnight.
(§5) In this way, the growth inhibition activities by (3S)-CA20, (3R)-CA20, CA1, CA5, CA15, CA55, CA MGH were examined. The minimum concentration of the cooling agent in which the growth of bacteria could not be confirmed was considered as the MIC (Minimum Inhibitory Concentration).
(§6) The minimum concentration of the cooling agent in which the grown strain could not be confirmed was considered as the MIC (Minimum Inhibitory Concentration).

[2] = tested on: Porphyromonas gingivalis (JCM8525); assay: Growth inhibition activity (MIC, agar) against anaerobic bacteria; details: Porphyromonas gingivalis, JCM8525, 72 h, strain JCM8525; Trypticase Soy Broth agar, 37 degrees C. for 3 days; read-out: MIC (Minimum Inhibitory Concentration)
Description: as §1
In the test for growth inhibition activity, the following strains were used: • Acne bacteria: Propionibacterium acnes (JCM6473) and (ATCC6919) • Abscess bacteria: Bacteroides fragilis (GAI5560) • Cavity-causing bacteria: Streptococcus mutans (JCM5175), Actinomyces naeslundii (JCM8350) and Actinomyces viscosus (JCM8352) • Periodontal pathogen: Fusobacterium nucleatum (JCM6328), Porphyromonas gingivalis (JCM8525), Prevotella nigrescens (JCM6322)
The test strains were cultured in a GAM medium (Nissui Pharmaceutical Co., LTD), a Schaedler Broth (BBL) or a Trypticase Soy Broth (BBL) liquid medium, and then the grown bacteria were diluted in saline to prepare turbidity 0.5 McFarland of the bacteria fluids for inoculation. The bacteria were cultured at 37 degrees C. for 3 days under an anaerobic condition by using AnaeroPack® from MGC.
as §3, with “cooling agent,” for “cooling agents,”, “of concentrations” for “of concentration”
Next, 100 μL of each sample liquid was added to 10 mL of a Trypticase Soy Broth agar medium solution in a soluble state, and each agar medium solution was poured into a petri dish and solidified, to prepare the test plates. Subsequently, 5 μL of above the bacteria fluids for inoculation were stamped on the test plates, and then the test plates were cultured at 37 degrees C. for 3 days.
(§7) The minimum concentration of the cooling agent in which the growth of bacteria could not be confirmed was considered as the MIC (Minimum Inhibitory Concentration).
as §7

[3] = tested on: Staphylococcus aureus (NBRC12732); assay: Growth inhibition activity (MIC, agar) against aerobic bacteria; details: Staphylococcus aureus; strain NBRC12732; Mueller Hinton Agar, 37 degrees C. overnight; read-out: MIC (Minimum Inhibitory Concentration)
Description: as §1
(§8) In the test for the growth inhibition activity, the following strains were used as skin-related bacteria: • Staphylococcus epidermidis: Staphylococcus epidermidis (JCM2414T and ATCC 12228) • Staphylococcus aureus: Staphylococcus aureus (NBRC12732 and JCM2151) • Skin indigenous bacteria which introduce a superficial infection: Corynebacterium minutissimum (NBRC15361T) • Armpit odor-causing bacteria: Corynebacterium xerosis (JCM1324)
as §2, §3, §4, §5, §6

[4] = tested on: Staphylococcus aureus (JCM2151); assay: as above; details: Staphylococcus aureus; strain JCM2151; Mueller Hinton Agar, 37 degrees C. overnight; read-out: MIC (Minimum Inhibitory Concentration)
Description: as §1, §8, §2, §3, §4, §5, §6

[5] = tested on: Staphylococcus epidermidis (JCM2414T); assay: as above; details: Staphylococcus epidermidis, strain JCM2414T; Mueller Hinton Agar, 37 degrees C. overnight; read-out: MIC (Minimum Inhibitory Concentration)
Description: as §1, §8, §2, §3, §4, §5, §6

[6] = tested on: Corynebacterium minutissimum (NBRC15361T); assay: as above; details: Corynebacterium minutissimum; strain NBRC15361T; Mueller Hinton Agar, 37 degrees C. overnight; read-out: MIC (Minimum Inhibitory Concentration)
Description: as §1, §8, §2, §3, §4, §5, §6

[7] = tested on: Corynebacterium xerosis (JCM1324); assay: as above; details: Corynebacterium xerosis; strain JCM1324; Mueller Hinton Agar, 37 degrees C. overnight; read-out: MIC (Minimum Inhibitory Concentration)
Description: as §1, §8, §2, §3, §4, §5, §6

[8] = tested on: Staphylococcus epidermidis (ATCC 12228); assay: as above; details: strain ATCC12228, Mueller Hinton Agar, 37 degrees C. overnight, read-out: MIC (Minimum Inhibitory Concentration)
Description: as §1, §8, §2, §3, §4, §5, §6

Compound | MIC [1] [µg/mL] | MIC [2] [µg/mL] | MIC [3] [µg/mL] | MIC [4] [µg/mL] | MIC [5] [µg/mL] | MIC [6] [µg/mL] | MIC [7] [µg/mL] | MIC [8] [µg/mL]
CC(O)CC(=O)OC1CC(C)CCC1C(C)C [(3S)-CA20, menthyl 3-hydroxybutanoate] | 200 (≈ 0.825 mM) | < 50 | 200 (≈ 0.825 mM) | 100 (≈ 0.413 mM) | 100 (≈ 0.413 mM) | 200 (≈ 0.825 mM) | 100 (≈ 0.413 mM) | –
CC1CCC(C(C)C)C(OCC(C)(O)CO)C1 (stereo not drawn) [CA1, 2-methyl-3-(menthoxy)propane-1,2-diol] | 400 (≈ 1.64 mM) | 200 (≈ 0.818 mM) | 800 (≈ 3.27 mM) | 400 (≈ 1.64 mM) | 400 (≈ 1.64 mM) | 400 (≈ 1.64 mM) | 800 (≈ 3.27 mM) | 800 (≈ 3.27 mM)
CC1CCC(C(C)C)C(OCCO)C1 (stereo not drawn) [CA5, 2-(menthoxy)ethanol] | 800 (≈ 3.99 mM) | – | 800 (≈ 3.99 mM) | 400 (≈ 2 mM) | 800 (≈ 3.99 mM) | 800 (≈ 3.99 mM) | 800 (≈ 3.99 mM) | 800 (≈ 3.99 mM)
CC1CCC(C(C)C)C(OCC(O)CO)C1 (stereo not drawn) [CA10, 3-menthoxypropane-1,2-diol, reference compound] | 800 (≈ 3.47 mM) | – | 1600 (≈ 6.95 mM) | 800 (≈ 3.47 mM) | 800 (≈ 3.47 mM) | 800 (≈ 3.47 mM) | 800 (≈ 3.47 mM) | 1600 (≈ 6.95 mM)
CC1CCC(C(C)C)C(OCCCO)C1 (stereo not drawn) [CA15, 3-menthoxypropan-1-ol] | 400 (≈ 1.87 mM) | – | 400 (≈ 1.87 mM) | 200 (≈ 0.933 mM) | 400 (≈ 1.87 mM) | 200 (≈ 0.933 mM) | 400 (≈ 1.87 mM) | 400 (≈ 1.87 mM)
CC1CCC(C(C)(C)O)C(O)C1 (stereo not drawn) [CA38, p-menthane-3,8-diol, reference compound] | 800 (≈ 4.64 mM) | – | > 1600 | > 1600 | > 1600 | > 1600 | > 1600 | > 1600
CC1CCC(C(C)C)C(OCCOCCO)C1 (stereo not drawn) [CA55, 2-(2-menthoxyethoxy)ethanol] | 800 (≈ 3.27 mM) | – | 800 (≈ 3.27 mM) | 800 (≈ 3.27 mM) | 800 (≈ 3.27 mM) | 800 (≈ 3.27 mM) | 800 (≈ 3.27 mM) | 800 (≈ 3.27 mM)
CC1CCC(C(C)C)C(OC(=O)C=O)C1 (stereo not drawn) [CA MGH, menthyl glyoxylate] | 50 (≈ 0.236 mM) | 50 (≈ 0.236 mM) | 100 (≈ 0.471 mM) | 100 (≈ 0.471 mM) | 50 (≈ 0.236 mM) | 100 (≈ 0.471 mM) | 100 (≈ 0.471 mM) | 50 (≈ 0.236 mM)
CNC(=O)C(C)(C(C)C)C(C)C [WS-23, N-methyl-2-isopropyl-2,3-dimethylbutanamide, reference compound] | > 1600 | > 1600 | > 1600 | > 1600 | > 1600 | > 1600 | > 1600 | –
CC1CCC(C(C)C)C(O)C1 (stereo not drawn) [l-menthol, menthol, reference compound] | 1600 (≈ 10.2 mM) | – | 1600 (≈ 10.2 mM) | 1600 (≈ 10.2 mM) | 1600 (≈ 10.2 mM) | 1600 (≈ 10.2 mM) | 1600 (≈ 10.2 mM) | 1600 (≈ 10.2 mM)
